According to patent US9427415B2, “Methods and compositions for modifying sensorial perception” (The Procter & Gamble Company, priority 2014, dated 2016):
Where a name gives a salt, the structure may show the parent alone. Read-outs that look alike come from different tables or passages of the source.

What was measured:
[1] = biological target: T1, human TRPA1 (Homo sapiens, UniProt O75762, K186N/R3C/R58T); experiment: Intracellular calcium (Fluo-4, FLIPR) activation of TRPA1 cells by GRAS compounds; format: cell-based; conditions: for activation at 1000 µM: read-out: A1 activation, % of agonist value;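 for all read-outs here: TRPA1-expressing cells, fluorescence read on a FLIPR Tetra (ex 488 nm, em 514 nm) every 2 s for 10 min after compound addition, baseline subtracted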
T1 construct: expressed in transfected cells; pcDNA3 control cells
T1 sequence (O75762 whole entry R3C/R58T/K186N): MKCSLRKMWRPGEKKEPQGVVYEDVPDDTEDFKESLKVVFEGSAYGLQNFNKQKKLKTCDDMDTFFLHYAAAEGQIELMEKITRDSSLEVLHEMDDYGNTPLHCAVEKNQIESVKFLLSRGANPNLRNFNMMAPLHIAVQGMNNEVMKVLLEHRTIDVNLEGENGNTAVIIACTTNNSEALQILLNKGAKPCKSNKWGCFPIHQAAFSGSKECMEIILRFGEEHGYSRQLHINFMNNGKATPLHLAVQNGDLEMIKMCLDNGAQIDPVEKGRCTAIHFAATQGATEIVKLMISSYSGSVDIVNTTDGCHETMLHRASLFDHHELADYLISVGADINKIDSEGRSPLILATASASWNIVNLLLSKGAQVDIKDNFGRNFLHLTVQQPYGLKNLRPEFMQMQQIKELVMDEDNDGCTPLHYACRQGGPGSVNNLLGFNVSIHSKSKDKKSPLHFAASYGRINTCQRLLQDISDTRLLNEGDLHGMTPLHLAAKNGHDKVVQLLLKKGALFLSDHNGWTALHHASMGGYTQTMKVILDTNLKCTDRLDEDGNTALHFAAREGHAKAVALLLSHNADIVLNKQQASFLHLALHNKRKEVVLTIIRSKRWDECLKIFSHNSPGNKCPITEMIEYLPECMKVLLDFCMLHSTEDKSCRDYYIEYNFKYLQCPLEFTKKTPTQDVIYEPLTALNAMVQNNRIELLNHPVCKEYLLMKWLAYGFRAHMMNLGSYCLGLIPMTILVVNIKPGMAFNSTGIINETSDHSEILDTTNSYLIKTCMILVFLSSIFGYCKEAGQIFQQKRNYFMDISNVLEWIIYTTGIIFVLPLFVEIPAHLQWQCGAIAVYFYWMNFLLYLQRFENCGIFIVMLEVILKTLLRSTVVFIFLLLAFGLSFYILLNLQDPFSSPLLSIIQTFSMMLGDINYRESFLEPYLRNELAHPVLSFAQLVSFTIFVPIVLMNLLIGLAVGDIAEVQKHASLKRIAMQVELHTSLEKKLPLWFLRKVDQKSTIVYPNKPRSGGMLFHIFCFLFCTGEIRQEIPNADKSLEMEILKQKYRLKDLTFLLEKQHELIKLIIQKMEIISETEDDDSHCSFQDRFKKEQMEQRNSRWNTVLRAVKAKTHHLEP

[2] = tested on: TRPA1V1; experiment: Intracellular calcium (Fluo-4, FLIPR) activation of TRPA1V1 cells (co-expressing TRPA1 and TRPV1) by GRAS compounds; format: cell-based, human; conditions: 1 mM, relative to AITC 30 μM;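 note: HEK293 cells co-expressing TRPA1 and TRPV1, fluorescence read at 488/514 nm after baseline subtraction, recorded every 2 s over 10 min, ionomycin 10 µM and buffer as controls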
[3] = Table 1(e), 1 mM, relative to AITC 30 μM
[4] = Table 1(c), 1 mM, relative to AITC 30 μM
[5] = Table 1(d), 1 mM, relative to AITC 30 μM

## CCOc1ccc(C=O)cc1 [4-Ethoxybenzaldehyde]
[1]; [3]
  activation at 1000 µM: 62%
[2]; Table 1(e)
  A1V1 activation, % of agonist value: 103%

## COc1ccc(CCC(C)=O)cc1 [4-Methoxybenzylacetone]
[1]; [4]
  activation at 1000 µM: 62.3%
[2]; Table 1(c)
  A1V1 activation, % of agonist value: 71.16%

## CC(=O)OCc1ccc(C)cc1 [4-Methylbenzyl acetate]
[1]; [3]
  activation at 1000 µM: 58.9%
[2]; Table 1(e)
  A1V1 activation, % of agonist value: 88.05%

## C=CCCC=O [4-Pentenal]
[1]; [4]
  activation at 1000 µM: 75.4%
[2]; Table 1(c)
  A1V1 activation, % of agonist value: 84.24%

## CC(C)CC=C(C=O)c1ccccc1 [5-Methy1-2-pheny1-2-hexenal]
[1]; [3]
  A1 activation, % of agonist value: 60.5%
[2]; Table 1(e)
  A1V1 activation, % of agonist value: 89.8%

## COc1ccc2ncccc2c1 [6-Methoxyquinoline]
[1]; [3]
  activation at 1000 µM: 57.8%
[2]; Table 1(e)
  A1V1 activation, % of agonist value: 130.5%

## C=CCCCCCCCCC=O [10-Undecenal]
[1]; [5]
  activation at 1000 µM: 61.8%
[2]; Table 1(d)
  A1V1 activation, % of agonist value: 28%

## CCCCCCCC/C=C/C=O [(2E)-Undecenal]
[1]; [4]
  A1 activation, % of agonist value: 59.6%
[2]; Table 1(c)
  A1V1 activation, % of agonist value: 48.8%

## CCCC/C=C/C=O [(E)-2-Heptenal]
[1]; [4]
  activation at 1000 µM: 112%
[2]; Table 1(c)
  A1V1 activation, % of agonist value: 96.6%

## CCCCC/C=C/C=C/C=O [(E,E)-2,4-Decadienal]
[1]; [5]
  activation at 1000 µM: 142%
[2]; Table 1(d)
  A1V1 activation, % of agonist value: 46%

## CCCCCCC/C=C/C=C/C=O [(E,E)-2,4-Dodecadienal]
[1]; [5]
  activation at 1000 µM: 159%
[2]; Table 1(d)
  A1V1 activation, % of agonist value: 55.4%

## C/C=C/C=C/C=O [(E,E)-2,4-Hexadienal]
[1]; [4]
  activation at 1000 µM: 92%
[2]; Table 1(c)
  A1V1 activation, % of agonist value: 108.71%

## CC/C=C/CC/C=C/C=O [(E,E)-2,6-Nonadienal]
[1]; [4]
  activation at 1000 µM: 87.1%
[2]; Table 1(c)
  A1V1 activation, % of agonist value: 89.61%

## CC/C=C/C=C/CO [(E,E)-Hepta-2,4-dien-1-ol]
[1]; [4]
  activation at 1000 µM: 146%
[2]; Table 1(c)
  A1V1 activation, % of agonist value: 133.3%

## CC(C)=CCC[C@](C)(O)[C@@H]1CC=C(C)CC1 [(−)-Alpha-Bisabolol]
[1]; [4]
  A1 activation, % of agonist value: 71.26%
[2]; Table 1(c)
  A1V1 activation, % of agonist value: 83.53%

## CCCOC(C)OCCc1ccccc1 (centres unmarked) [Acetaldehyde, phenethyl propyl acetal]
[1]; [5]
  A1 activation, % of agonist value: 86.4%
[2]; Table 1(d)
  A1V1 activation, % of agonist value: 62.2%

## C=CCOC(=O)c1ccccc1N [Allyl anthranilate]
[1]; [4]
  activation at 1000 µM: 73.8%
[2]; Table 1(c)
  A1V1 activation, % of agonist value: 75.03%

## C=CCOC(=O)Cc1ccccc1 [Allyl phenylacetate]
[1]; [4]
  activation at 1000 µM: 86.2%
[2]; Table 1(c)
  A1V1 activation, % of agonist value: 84.14%

## C=CCCC(=O)/C=C/C1C(C)=CCCC1(C)C (stereo not drawn) [Allyl-alpha-ionone]
[1]; [3]
  A1 activation, % of agonist value: 52.6%
[2]; Table 1(e)
  A1V1 activation, % of agonist value: 89.7%

## COc1ccc(C=C(C)C=O)cc1 [Alpha Methyl-4-methoxycinnamaldehyde]
[1]; [3]
  activation at 1000 µM: 67.1%
[2]; Table 1(e)
  A1V1 activation, % of agonist value: 85.80%

## CC(C)CC(O)Cc1ccccc1 (stereo not drawn) [Alpha-Isobutylphenethyl alcohol]
[1]; [4]
  activation at 1000 µM: 73%
[2]; Table 1(c)
  A1V1 activation, % of agonist value: 58.62%

## CCCCCOC(=O)c1ccco1 [Amyl furoate]
[1]; [4]
  A1 activation, % of agonist value: 81.09%
[2]; Table 1(c)
  A1V1 activation, % of agonist value: 87.70%

## COc1ccc(COC=O)cc1 [Anisyl formate]
[1]; [4]
  A1 activation, % of agonist value: 89.5%
[2]; Table 1(c)
  A1V1 activation, % of agonist value: 78.2%

## OCc1ccccc1 [Benzenemethanol]
[1]; [4]
  activation at 1000 µM: 79.6%
[2]; Table 1(c)
  A1V1 activation, % of agonist value: 78.47%

## O=C(c1ccccc1)C(O)c1ccccc1 (centres unmarked) [Benzoin]
[1]; [3]
  activation at 1000 µM: 26.2%
[2]; Table 1(e)
  A1V1 activation, % of agonist value: 61.81%

## O=C(Nc1ccccc1C(=O)O)c1ccccc1 [Benzoylanthranilic acid]
[1]; [4]
  A1 activation, % of agonist value: 145.9%
[2]; Table 1(c)
  A1V1 activation, % of agonist value: 125.6%

## Cc1ccc(C(C)O)cc1 (stereo not drawn) [Benzyl alcohol, p,alpha-dimethyl-]
[1]; [4]
  A1 activation, % of agonist value: 77.2%
[2]; Table 1(c)
  A1V1 activation, % of agonist value: 71.8%

## CCCC(=O)OCc1ccccc1 [Benzyl butyrate]
[1]; [4]
  activation at 1000 µM: 70%
[2]; Table 1(c)
  A1V1 activation, % of agonist value: 64.7%

## CCC(=O)OCc1ccccc1 [Benzyl propionate]
[1]; [4]
  activation at 1000 µM: 103%
[2]; Table 1(c)
  A1V1 activation, % of agonist value: 90.7%

## CC(C)=CCC[C@](C)(O)C1CC=C(C)CC1 (some centres unmarked) [Bisabolol]
[1]; [4]
  activation at 1000 µM: 68%
[2]; Table 1(c)
  A1V1 activation, % of agonist value: 73.53%

## O=CC=Cc1ccccc1 [Cinnamaldehyde]
[1]
  activation at 1000 µM: 51.2%
[2]; Table 1(e)
  A1V1 activation, % of agonist value: 77.3%

## O=C(O)C=Cc1ccccc1 [Cinnamic acid]
[1]; [4]
  activation at 1000 µM: 37.7%
[2]; Table 1(c)
  A1V1 activation, % of agonist value: 42.5%

## CC(=O)OCC=Cc1ccccc1 [Cinnamyl acetate]
[1]; [4]
  activation at 1000 µM: 85%
[2]; Table 1(c)
  A1V1 activation, % of agonist value: 89.73%

## OCC=Cc1ccccc1 [Cinnamyl alcohol]
[1]
  activation at 1000 µM: 89.8%
[2]; Table 1(c)
  A1V1 activation, % of agonist value: 79.4%
